Reference: patent US20050215641A1, “Compositions comprising reverse isomers of conjugated linoleic acid” (priority 2004, published 2005)
Marks after values point to notes of the source that are not given here. Values belong to the molecule of their own block, whether it stands above or below them.

Experiments:
[1] = tested on: lactating Holstein cows; assay: Milk fat depression model, abomasal infusion of CLA supplements, 4x4 Latin square (Example 4); type: in vivo; conditions: for inhibitory effects on lipid synthesis: milk fat depression model, general statement; for Milk fat yield reduced / Milk fat % / Milk fat kg/d: 5 g/d of isomer of interest; for Milk fat yield reduced: 5 d; for Milk fat yield reduced / transfer efficiency of specific CLA isomers within respective treatment groups: P<0.001; for Milk fat % / Milk fat kg/d: average of day 4 and 5 of supplementation; for transfer efficiency of specific CLA isomers within respective treatment groups: abomasal infusion 5 g/d
From the text: Four rumen-fistulated lactating Holstein cows (149±18 DIM) were randomly assigned in a 4×4 Latin square experiment. Treatments were abomasal infusions of 1) ethanol (control), 2) trans-10, cis-12 CLA supplement (positive control), 3) trans-9, trans-11 CLA supplement, and 4) trans-9, cis-11 CLA supplement. The trans-10, cis-12 and trans-9, trans-11 CLA supplements were of high purity (>90%), whereas the trans-9, cis-11 CLA supplement consisted mainly of 3 CLA isomers: trans-9, cis-11 (32%), cis-9, trans-11 (29%) and trans-9, trans-11 (17%). CLA supplements supplied 5 g/d of the CLA isomer of interest and the daily dose was provided by infusion at 6 h intervals. Treatment periods were 5 d in length with a 7 d washout interval. Milk yield and DMI were unaffected by treatment (P>0.05). Milk fat yield was reduced 27% by the trans-10, cis-12 CLA treatment and 15% by the trans-9, cis-11 CLA treatment, while the trans-9, trans-11 CLA treatment had no effect (P<0.001). Milk protein content and yield were reduced by the trans-9, trans-11 CLA treatment only (P<0.01). The transfer efficiency of specific CLA isomers within respective treatment groups was 22% for trans-10, cis-12 CLA, 21% for trans-9, trans-11 CLA and 46% for trans-9, cis-11 CLA (P<0.001). […] The data are summarized in Tables 4 and 5 and FIGS. 3 and 4.

[2] = tested on: cows; assay: Milk fat depression model, continuous abomasal infusion of CLA isomer emulsions (Example 3); type: in vivo; conditions: for inhibitory effects on lipid synthesis: milk fat depression model, general statement; for Yield Fat / Concentration Fat: abomasal infusion of emulsion, 1 g/L CLA, over four days; for Yield Fat: mean treatment effects; for Concentration Fat: milk
Procedure: When CLA is prepared with alkaline isomerization of linoleic acid, the isomers t10,c12 and c9,t11 are formed. Further, trans, trans isomers of 9,11 and 10,12 can be formed catalytically at high temperatures, as well as t8,c10 and c11,t13. […] This example describes, for the first time, a biological effect of the c10,t12 isomer of CLA.
Emulsions of three different isomer preparations (see Table 2; t10,c12; t10,t12; and a mixture of t10, c12; c10,t12 and t10,t12 isomers; prepared as described in Example 1) were prepared essentially the same way as described by Chouinard, et al., J. Nutr. 129:1579 [1999]. The concentration of CLA in these emulsions was 1 g/L and the emulsions were administered continuously to cows at the rate of 3 1/24 h over four days as described by Chouinard, et al., J. Nutr. 129:1579 [1999]. Briefly, the emulsions were continuously infused into the abomasum via infusion lines that pass through the rumen cannula and omasal canal and peristaltic pumps. Milk was sampled daily and concentration of milk fat was determined by infrared analysis using Milko-Scan 133B analyser (Foss Electric, Hillerød, Denmark). […] Table 3 presents the mean treatment effects on intake and milk production.

[3] = Peroxide values (PV) by ferric thiocyanate method after storage; type: physicochemical; conditions: after storage in open glass
From the text: The present invention also contemplates stabilization of the c10,t12, c10,c12, t9,c11 and/or c9,c11 compositions by preventing oxidation of the compounds. The present invention is not limited to any one mechanism. Indeed, an understanding of the mechanism of the invention is not necessary to produce the composition or perform the methods of the present invention. […] After storage in open glass, the PV of CLA was 32; in comparison, the value for linoleic acid was 370.

SMILES: CCCCCC/C=C\C=C/CCCCCCCC(=O)O [c9,c11]
inhibitory effects on lipid synthesis [1]: strong inhibitory effects

SMILES: CCCCC/C=C\C=C/CCCCCCCCC(=O)O [c10,c12, c10,c12 octadecadienoic acid]
inhibitory effects on lipid synthesis [2]: strong inhibitory effects

SMILES: CCCCC/C=C/C=C\CCCCCCCCC(=O)O [c10,t12, c10,t12 octadecadienoic acid]
inhibitor of lipid synthesis ([2]; concluded from the effect of the isomer mixture versus purified t10,c12): stronger inhibitor of lipid synthesis than t10,c12
inhibitory effects on lipid synthesis [2]: strong inhibitory effects

peroxide values (PV) [3]: 370
SMILES: CCCCC/C=C\C/C=C\CCCCCCCC(=O)O [linoleic acid]

transfer efficiency of specific CLA isomers within respective treatment groups [1]: 21%
SMILES: CCCCCC/C=C/C=C/CCCCCCCC(=O)O [t9, t11 CLA]
Milk fat yield reduced [1]: no effect
Milk fat % [1]: 4.03^a %
Milk fat kg/d [1]: 0.770^a kg/d

SMILES: CCCCCC/C=C\C=C\CCCCCCCC(=O)O [t9,c11, t9,c11 octadecadienoate]
inhibitory effects on lipid synthesis [1]: strong inhibitory effects

transfer efficiency of specific CLA isomers within respective treatment groups [1]: 22%
SMILES: CCCCC/C=C\C=C\CCCCCCCCC(=O)O [t10, c12, t10,c12 octadecadienoic acid]
Yield Fat [2]: 573^ab g/day
Concentration Fat [2]: 29.1^b g/kg
Milk fat yield reduced [1]: 27%
Milk fat % [1]: 2.54^d %
Milk fat kg/d [1]: 0.541^c kg/d

SMILES: CCCCC/C=C/C=C/CCCCCCCCC(=O)O [t10, t12, t10,t12 CLA]
Yield Fat [2]: 694^a g/day
Concentration Fat [2]: 7.2^a g/kg
effect on the concentration of milk fat ([2]; purified form): did not have any effect
